Laboratory results published in PubChem BioAssay AID330 (DTP/NCI, 2004).
“And” between values parts separate entries of the source, which are not always exact repeats. Equal entries are not always repeated. Inconclusive results and toxic doses are left out. Rule for the calls: active = survival T/C of 150% or more; inactive = T/C below 125% in these data.

Tested on: P388 leukemia ip, CD2F1 mice, survival T/C
Assay: NCI In Vivo Anticancer Drug Screen. Data for tumor model P388 Leukemia (intraperitoneal) in CD2F1 (CDF1) mice
Details: endpoint: median survival time, higher = longer survival
Method in brief: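 Mice carrying the transplanted tumor received test compound or vehicle. Survival was recorded in each group, and the value is the treated-group measurement divided by that of the vehicle-treated control group.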

[1] = dose: 50.0 mg/kg/injection, schedule: Q01DX009 (ip), vehicle: saline
[2] = dose: 100.0 mg/kg/injection, schedule: Q01DX009 (ip), vehicle: saline
[3] = dose: 200.0 mg/kg/injection, schedule: Q01DX009 (ip), vehicle: saline
[4] = dose: 50.0 mg/kg/injection, schedule: Q01DX005 (ip), vehicle: Klucel (hydroxypropylcellulose) (HPC)
[5] = dose: 60.0 mg/kg/injection, schedule: Q01DX005 (ip), vehicle: saline with Tween-80
[6] = dose: 120.0 mg/kg/injection, schedule: Q01DX005 (ip), vehicle: saline with Tween-80
[7] = dose: 240.0 mg/kg/injection, schedule: Q01DX005 (ip), vehicle: saline with Tween-80
[8] = dose: 12.5 mg/kg/injection, schedule: Q01DX009 (ip), vehicle: Klucel (hydroxypropylcellulose) (HPC)
[9] = dose: 25.0 mg/kg/injection, schedule: Q01DX009 (ip), vehicle: Klucel (hydroxypropylcellulose) (HPC)
[10] = dose: 50.0 mg/kg/injection, schedule: Q01DX009 (ip), vehicle: Klucel (hydroxypropylcellulose) (HPC)
[11] = dose: 100.0 mg/kg/injection, schedule: Q04DX003 (ip), vehicle: saline with Tween-80
[12] = dose: 200.0 mg/kg/injection, schedule: Q04DX003 (ip), vehicle: saline with Tween-80
[13] = dose: 100.0 mg/kg/injection, schedule: Q01DX009 (ip), vehicle: Klucel (hydroxypropylcellulose) (HPC)
[14] = dose: 200.0 mg/kg/injection, schedule: Q01DX009 (ip), vehicle: Klucel (hydroxypropylcellulose) (HPC)
[15] = dose: 100.0 mg/kg/injection, schedule: Q01DX009 (ip), vehicle: saline with Tween-80
[16] = dose: 200.0 mg/kg/injection, schedule: Q01DX009 (ip), vehicle: saline with Tween-80
[17] = dose: 60.0 mg/kg/injection, schedule: Q01DX005 (ip), vehicle: Klucel (hydroxypropylcellulose) (HPC)
[18] = dose: 120.0 mg/kg/injection, schedule: Q01DX005 (ip), vehicle: Klucel (hydroxypropylcellulose) (HPC)

Measured: T/C

CCOS(=O)(=O)c1ccc(C(=O)O)cc1
inactive: [1] 108 % of control | [2] 107 % of control | [3] 107 % of control

C[P+]12CN3CN(CN(C3)C1)C2
inactive: [1] 107 % of control | [2] 107 % of control | [3] 101 % of control

O=C1C=CC(=O)O1 (tested in a mixture with another compound)
inactive: dose: 6.25 mg/kg/injection, schedule: Q01DX009 (ip), vehicle: saline 117 % of control | dose: 12.5 mg/kg/injection, schedule: Q01DX009 (ip), vehicle: saline 100 % of control | dose: 25.0 mg/kg/injection, schedule: Q01DX009 (ip), vehicle: saline 102 % of control and 108 % of control and 89 % of control | dose: 25.0 mg/kg/injection, schedule: Q04DX003 (ip), vehicle: saline 120 % of control | [1] 108 % of control [middle of 4 runs] | [2] 100 % of control and 108 % of control and 109 % of control | dose: 150.0 mg/kg/injection, schedule: Q01DX009 (ip), vehicle: saline 120 % of control | [3] 108 % of control and 115 % of control and 120 % of control

Nc1n[nH]c2ccccc12
inactive: [4] 104 % of control and 107 % of control | dose: 100.0 mg/kg/injection, schedule: Q01DX005 (ip), vehicle: Klucel (hydroxypropylcellulose) (HPC) 105 % of control and 107 % of control | dose: 200.0 mg/kg/injection, schedule: Q01DX005 (ip), vehicle: Klucel (hydroxypropylcellulose) (HPC) 117 % of control

O=C(c1ccccc1)c1ccccc1NCC(O)COc1cccc2ccccc12 (stereo not given)
inactive: [5] 100 % of control | [6] 92 % of control | [7] 91 % of control

ClC(=Nc1ccccc1)c1ccccn1
inactive: [8] 101 % of control | [9] 101 % of control | [10] 96 % of control

Cn1c(Cl)c(C=O)c(=O)n(C)c1=O
inactive: [11] 104 % of control | [12] 96 % of control

CCNc1ccc(F)cc1[N+](=O)[O-]
inactive: dose: 50.0 mg/kg/injection, schedule: Q04DX003 (ip), vehicle: saline with Tween-80 100 % of control | [11] 100 % of control | [12] 86 % of control

CN(C)c1ccc([N+](C)(C)Cc2ccc(C[N+](C)(C)c3ccc([N+](C)(C)Cc4ccc(CCl)cc4)cc3)cc2)cc1
inactive: dose: 3.13 mg/kg/injection, schedule: Q01DX001 (ip), vehicle: saline 108 % of control | dose: 6.25 mg/kg/injection, schedule: Q01DX001 (ip), vehicle: saline 112 % of control and 97 % of control

O=C(CCCCC(=O)NO)NO
inactive: [10] 102 % of control | [13] 105 % of control | [14] 105 % of control

Cc1ccc(N)c(N)c1
inactive: [15] 99 % of control | [2] 107 % of control | [16] 109 % of control | dose: 400.0 mg/kg/injection, schedule: Q01DX009 (ip), vehicle: saline with Tween-80 123 % of control

O=C1c2cccc(Cl)c2Cc2c(Cl)cccc21
inactive: dose: 100.0 mg/kg/injection, schedule: Q01DX001 (ip), vehicle: saline with Tween-80 105 % of control | dose: 200.0 mg/kg/injection, schedule: Q01DX001 (ip), vehicle: saline with Tween-80 99 % of control | dose: 400.0 mg/kg/injection, schedule: Q01DX001 (ip), vehicle: saline with Tween-80 92 % of control

CS/C(=C\c1sc2ccccc2[n+]1C)SCC(=O)c1ccccc1
inactive: dose: 25.0 mg/kg/injection, schedule: Q04DX002 (ip), vehicle: saline with Tween-80 100 % of control | dose: 50.0 mg/kg/injection, schedule: Q04DX002 (ip), vehicle: saline with Tween-80 104 % of control | dose: 100.0 mg/kg/injection, schedule: Q04DX002 (ip), vehicle: saline with Tween-80 106 % of control

Cc1[nH]c(C)c(Br)c(=O)c1F
inactive: dose: 6.25 mg/kg/injection, schedule: Q01DX009 (ip), vehicle: Klucel (hydroxypropylcellulose) (HPC) 116 % of control | [8] 110 % of control | [9] 100 % of control

COC(=O)c1ccc(O)cc1C1(Cl)CC1
inactive: [17] 108 % of control | [18] 102 % of control | dose: 240.0 mg/kg/injection, schedule: Q01DX005 (ip), vehicle: Klucel (hydroxypropylcellulose) (HPC) 100 % of control

CCc1ccc(-n2c(C)nc3[nH]cc(C)c3c2=N)cc1
inactive: dose: 12.5 mg/kg/injection, schedule: Q01DX005 (ip), vehicle: Klucel (hydroxypropylcellulose) (HPC) 100 % of control | dose: 25.0 mg/kg/injection, schedule: Q01DX005 (ip), vehicle: Klucel (hydroxypropylcellulose) (HPC) 100 % of control | [4] 98 % of control and 100 % of control

CCc1ccc2ccc3ccc(CC)nc3c2n1
inactive: [5] 106 % of control | [6] 102 % of control | [7] 99 % of control

COc1ccc(Cc2nnc3nc(OC)c(-c4ccc(OC)cc4)n3n2)cc1
inactive: dose: 50.0 mg/kg/injection, schedule: Q01DX005 (ip), vehicle: saline with Tween-80 108 % of control and 87 % of control | dose: 100.0 mg/kg/injection, schedule: Q01DX005 (ip), vehicle: saline with Tween-80 108 % of control | dose: 200.0 mg/kg/injection, schedule: Q01DX005 (ip), vehicle: saline with Tween-80 86 % of control and 98 % of control

COC(=O)c1nnn(-c2ccc(Cl)cc2Cl)c1C(=O)c1ccc(Cl)c(Cl)c1
inactive: [5] 101 % of control | [6] 100 % of control | [7] 95 % of control

c1ccc(Cc2cc(-c3ccccc3)[nH]c2-c2ccccc2)cc1
inactive: [1] 100 % of control | [2] 104 % of control | [3] 90 % of control

CCOC(=O)c1[nH]c2ccc(O)c3c2c1CCC3=O
inactive: dose: 50.0 mg/kg/injection, schedule: Q01DX009 (ip), vehicle: saline with Tween-80 92 % of control | [15] 88 % of control | [16] 94 % of control

Cc1ccc(Cc2nnc(C)c3c(C)[nH]nc23)cc1
inactive: [10] 100 % of control | [13] 95 % of control | [14] 93 % of control

Cn1nc(N)c2ncc(-c3ccc(Cl)cc3)nc21
inactive: [11] 90 % of control | [12] 95 % of control

O=c1c2ccccc2oc2nc3ccccc3nc12
inactive: [17] 101 % of control | [18] 103 % of control

O=C1NC(=O)C2=C1CCC2Br (stereo not given)
inactive: dose: 3.13 mg/kg/injection, schedule: Q01DX009 (ip), vehicle: distilled water + Tween-80 101 % of control | dose: 6.25 mg/kg/injection, schedule: Q01DX009 (ip), vehicle: distilled water + Tween-80 102 % of control

COC1OC2COC(c3ccccc3)OC2C2OC(c3ccccc3)OC12 (stereo not given)
inactive: dose: 1.56 mg/kg/injection, schedule: Q01DX009 (ip), vehicle: other 116 % of control | dose: 3.13 mg/kg/injection, schedule: Q01DX009 (ip), vehicle: other 106 % of control | dose: 6.25 mg/kg/injection, schedule: Q01DX009 (ip), vehicle: other 119 % of control | dose: 12.5 mg/kg/injection, schedule: Q01DX009 (ip), vehicle: other 113 % of control | dose: 25.0 mg/kg/injection, schedule: Q01DX009 (ip), vehicle: other 113 % of control and 87 % of control | dose: 50.0 mg/kg/injection, schedule: Q01DX009 (ip), vehicle: other 91 % of control | dose: 100.0 mg/kg/injection, schedule: Q01DX009 (ip), vehicle: other 91 % of control | dose: 200.0 mg/kg/injection, schedule: Q01DX009 (ip), vehicle: other 89 % of control | dose: 400.0 mg/kg/injection, schedule: Q01DX009 (ip), vehicle: other 92 % of control
